Source: patent publication US11510957B2, “Method for treating or alleviating autoimmune-related diseases” (priority 2016, dated 2022)

Legend:
[1] = tested on: IL-17 secretion in EL4 murine lymphoma cells; test: Anti-IL-17 secretion in EL4 (murine lymphoma) cells induced with PMA and Ionomycin, ELISA; format: cell-based; conditions: PMA 10 ng/ml + Ionomycin 5 ng/ml, 18 hours
Protocol: EL4 cell line is murine lymphoma cell purchased from Bioresource Collection and Research Center (referred to as BCRC) and cultured in RPMI 1640 medium which contains 10% Fetal Bovine Serum (referred to as FBS), 1.5 g Sodium bicarbonate, 1 mM Sodium pyruvate, lx non-essential amino acids (referred to as NEAA), and 0.5 mM 2-Mecaptoethanol (referred to as 2-ME).
EL4 lymphoma cells were seeded into 96-well plate by 1×10^5 cells per well and 10 μl of the extract of A. tsao-ko HE-06 was added to each well and incubated at 37° C. in 5% CO2 cell incubator for 1 hour. Then, Phorbol-12-myristate-13-acetate (referred to as PMA or TPA) and Ionomycin were added to be the stimulants that induce activation of lymphoma cells, in which the final concentration of PMA was 10 ng/ml and the final concentration of Ionomycin was 5 ng/ml, and additional 18 hours incubation was executed. In the above test, the group of adding both PMA (final concentration of 10 ng/ml) and Ionomycin (final concentration of 5 ng/ml) was considered as the control group.
Thereafter, the cell-containing 96-well plate was centrifuged at 1200 rpm for 5 minutes and the supernatant was collected and transferred to the new 96-well plate. […] 150 μl DMSO was then added to dissolve the […] and the absorbance of 570 nm was measured to assess the cell viability. […]

[2] = tested on: TNF-α secretion in LPS-induced acute inflammatory mice; test: TNF-α secretion in LPS-induced acute inflammatory BALB/c mouse model, plasma ELISA; format: in vivo; conditions: FIG. 5B
Protocol: The 6-8 weeks BALB/c male mice were purchased from BioLASCO Taiwan Co., Ltd. In addition to make the feeding condition meeting with national experimental animal guidelines, the batch of mice were marked, sub-cage and weighing soon after acquisition. Then, these mice were placed to the quarantine room of general area for a week of quarantine work. During the quarantine period, observation of mobility and environmental adaptability was performed, and after assessment to be normal, these mice were transferred into the feeding area for experimental implementation. […]
Then the mice were fasted for 2 to 4 hours but regular drinking water was still supplied. […] After administration, the clinical symptoms of the mice were observed and recorded. […] After administration, the clinical symptoms of the mice were observed and recorded.
After 1.5 hours LPS stimulation, the mice were euthanized by excessive CO2 and the whole blood was collected by cardiac puncture blood sampling. Next, the plasma was collected after centrifugation at 6000 rpm and 4° C. for 10 minutes and then TNF-α secretion were analyzed.
The TNF-α secretion in plasma was analyzed according to the following procedure shown in Duoset® ELISA kit. […] Finally, 50 μl of Stop Solution (1N HCl) was added to each well to stop the color reaction, and the absorbance of OD450 nm was measured.

[3] = tested on: EAE in C57BL/6 mice; test: Experimental autoimmune encephalomyelitis (EAE) mouse model, clinical EAE score; format: in vivo; conditions: 30 mg/kg and 100 mg/kg; 14 days
Protocol: The experimental animals, female C57BL/6 mice, aged about 8 weeks, were purchased from National Laboratory Animal Center (Tainan). After acclimation and quarantine, the mice were approximately 10-12 weeks of age at the time of performing the EAE experiments. The experimental animals were bred in the environment: 12 hours light and 12 hours dark, room temperature of 23±2° C., and relative humidity of 40-70%. During feeding, animals were free to obtain adequate food and drinking water, but after the onset of EAE, the soaked soft feed and agar gel jelly were especially given in the bottom of the feeding cage, so that the onset animals were easier to feed and drink. In addition, during the quarantine and testing period, the animals were observed and recorded by the veterinarian and the experimental staff of ITRI to ensure health of these experimental animals.
The foregoing C57BL/6 mice were administered subcutaneously with 200 μl emulsion including 200 μg MOG35-55 peptide and 400 μg Mycobacterium tuberculosis H37Ra, followed by intraperitoneal injection of 500 ng pertussis toxin for induction of EAE. From the 7th day after induction, the EAE clinical symptoms were recorded daily according to the recognized Ataxia score (grading of nervous system disorder) and EAE score as the scoring criteria (description of Ataxia score and EAE score are as follows). […]

[4] = tested on: IMQ-induced psoriasis-like dermatitis in BALB/c mice; test: Imiquimod (IMQ)-induced psoriasis-like dermatitis mouse model, skin irritation score; format: in vivo; conditions: 100 mg/kg; 6 days; FIG. 5D
Protocol: The 8 weeks BALB/c male mice were purchased from BioLASCO Taiwan Co., Ltd. After acclimation and quarantine, the batch of mice were approximately 9-10 weeks of age at the time of performing the experiment of IMQ-induced psoriasis-like dermatitis. The experimental animals were bred in the environment: 12 hours light and 12 hours dark, room temperature of 23±2° C., and relative humidity of 40-70%. During feeding, animals were free to obtain adequate food and drinking water. In addition, during the quarantine and testing period, the animals were observed and recorded by the veterinarian and the experimental staff of ITRI to ensure health of these experimental animals.
Then, the hair on the back of each mouse was shaved, and the shaving area was about 4*2 cm^2. Since day 0, 3.125 mg imiquimod (IMQ) was administered by smearing to the skin of shaved area of each mouse daily for consecutive 6 days. […]
The above-mentioned degree of skin irritation is based on Psoriasis Area and Severity Index (PAST), in which erythema, thickening, and scaling of skin were assessed and analyzed for judging the scale. […]
The mean value and standard error of mean (S.E.M.) of each group were calculated by accumulating the index observed in the same mouse, and t-test statistics was used to distinguish the differences between the groups.

For `O=CC1=CC[C@H](O)[C@@H]2CCC[C@H]12` [Tsaokoin (TK), tsaokoin], the “IC50, concentration causing 50% IL-17 secretion inhibition, EL4” value [1] was 12.1 µg/mL, the “inhibition of TNF-α secretion (in words)” value [2] was “significantly inhibit the secretion of TNF-α” and the “effect on progress of EAE (EAE score)” value [3] was “slow down the progress of EAE, and present a dose-dependent effect”. For the same compound, the “clinical symptoms of IMQ-induced psoriasis-like dermatitis” value [4] was “significantly alleviate the clinical symptoms of IMQ-induced psoriasis-like dermatitis”.
